Reference: article PMC6539584, “Mosquito Acetylcholinesterase as a Target for Novel Phenyl-Substituted Carbamates” (International Journal of Environmental Research and Public …, 2019)
Read-outs that look alike come from different tables or passages of the source.

Assays:
hAChE [1] = target: T1, hAChE (Homo sapiens, UniProt P22303); test: Ellman assay, 96-well, […] nm; type: biochemical
T1 construct: gene ACHE; commercial recombinant human enzyme (Sigma-Aldrich)

hAChE [2] = target: T1, hAChE; test: Ellman assay, 96-well, […] nm; type: biochemical; remark: listed apart in the source
[3] = Ellman assay, 96-well, […] nm; type: biochemical, Homo sapiens; details: read-out: AgAChE, IC50, ^a nM
[4] = acetylthiocholine, pH 7.8, 10 min pre-incubation, 0.1% DMSO; covalent; read-out: hAChE IC50 ^a; cited from earlier work

T1 sequence (P22303 32-614): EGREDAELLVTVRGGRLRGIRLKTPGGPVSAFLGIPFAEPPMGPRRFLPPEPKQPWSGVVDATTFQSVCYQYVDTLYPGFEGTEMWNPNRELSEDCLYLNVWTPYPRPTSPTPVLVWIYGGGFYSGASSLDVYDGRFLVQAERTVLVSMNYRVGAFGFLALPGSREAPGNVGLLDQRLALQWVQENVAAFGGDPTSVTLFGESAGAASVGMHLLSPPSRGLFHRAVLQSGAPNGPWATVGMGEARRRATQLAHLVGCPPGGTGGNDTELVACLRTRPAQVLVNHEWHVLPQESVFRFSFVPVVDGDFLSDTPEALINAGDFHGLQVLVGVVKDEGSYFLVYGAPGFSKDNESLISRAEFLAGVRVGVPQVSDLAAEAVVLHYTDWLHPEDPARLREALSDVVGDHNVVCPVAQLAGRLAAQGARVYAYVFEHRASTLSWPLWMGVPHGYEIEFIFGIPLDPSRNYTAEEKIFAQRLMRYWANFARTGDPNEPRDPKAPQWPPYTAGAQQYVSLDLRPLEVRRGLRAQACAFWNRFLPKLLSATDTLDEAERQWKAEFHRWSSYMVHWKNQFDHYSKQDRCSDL

Compound	IC50 (hAChE [1]) [nM]	other results
3-(tert-butyl)-4-(ethyl(methyl)carbamoyl)phenyl methylcarbamate [1l]		IC50 (hAChE [1]; acetylthiocholine, pH 7.8, 10 min pre-incubation, 0.1% DMSO, covalent, read-out: hAChE ^aIC50): 5500 nM
CNC(=O)Oc1cccc(C(C)(C)C)c1 [1a, 3-tert-butylphenyl methylcarbamate]		IC50 (hAChE [2]; read-out: hAChE ^aIC50; acetylthiocholine, pH 7.8, 10 min pre-incubation, 0.1% DMSO; covalent; cited from earlier work): 320 nM
CNC(=O)Oc1ccc(Br)c(C(C)(C)C)c1 [1b, 4-bromo-3-(tert-butyl)phenyl methylcarbamate]	1200	
CNC(=O)Oc1cc(C(C)(C)C)ccc1Br [1d, 2-bromo-5-(tert-butyl)phenyl methylcarbamate]	48	
CNC(=O)Oc1cc(C(C)(C)C)ccc1I [1e, 5-(tert-butyl)-2-iodophenyl methylcarbamate]	640	
CCCCCCc1ccc(C(C)(C)C)cc1OC(=O)NC [1f, 5-(tert-butyl)-2-hexylphenyl methylcarbamate]	6300	
C=CCNC(=O)c1ccc(OC(=O)NC)cc1C(C)(C)C [1h, 4-(allylcarbamoyl)-3-(tert-butyl)phenyl methylcarbamate]	2800	
CNC(=O)Oc1ccc(C(=O)NC)c(C(C)(C)C)c1 [1i, 3-(tert-butyl)-4-(methylcarbamoyl)phenyl methylcarbamate]	> 100000	
CNC(=O)Oc1ccc(C(=O)NCC(C)C)c(C(C)(C)C)c1 [1j, 3-(tert-butyl)-4-(isobutylcarbamoyl)phenyl methylcarbamate]	> 100000	
CCN(CC)C(=O)c1ccc(OC(=O)NC)cc1C(C)(C)C [1k, 3-(tert-butyl)-4-(diethylcarbamoyl)phenyl methylcarbamate]	2300	
CNC(=O)Oc1cc(C(C)(C)C)ccc1SC [1m, 5-(tert-butyl)-2-(methylthio)phenyl methylcarbamate]	640	
CNC(=O)Oc1cc(C(C)(C)C)ccc1SCC(C)C [1n, 5-(tert-butyl)-2-(isobutylthio)phenyl methylcarbamate]	4700	
CNC(=O)Oc1cc(C(C)(C)C)ccc1SC(C)C [1o, 5-(tert-butyl)-2-(isopropylthio)phenyl methylcarbamate]	2200	
CNC(=O)Oc1cccc(C(F)(F)F)c1 [2a, 3-(trifluoromethyl)phenyl methylcarbamate]		IC50 [3]: > 100000 nM
CNC(=O)Oc1cccc([Si](C)(C)C)c1 [3a]		IC50 (hAChE [2]; [4]): 490 nM
CNC(=O)Oc1ccc(C)c([Si](C)(C)C)c1 [3c, 4-methyl-3-(trimethylsilyl)phenyl methylcarbamate]	2400	
CNC(=O)Oc1cc(F)cc([Si](C)(C)C)c1 [3g, 3-fluoro-5-(trimethylsilyl)phenyl methylcarbamate]	4200	
CC[Si](C)(C)c1cccc(OC(=O)NC)c1 [4a]		IC50 (hAChE [2]; [4]): 630 nM
CC[Si](C)(C)c1cc(OC(=O)NC)ccc1C [4c, 3-(ethyldimethylsilyl)-4-methylphenyl methylcarbamate]	1400	
CC[Si](C)(C)c1cc(F)cc(OC(=O)NC)c1 [4g, 3-(ethyldimethylsilyl)-5-fluorophenyl methylcarbamate]	1900	
CCC(CC)CSc1ccccc1OC(=O)NC [5a]		IC50 (hAChE [2]; read-out: hAChE IC50 ^a; acetylthiocholine, pH 7.8, 10 min pre-incubation, 0.1% DMSO; covalent; cited from earlier work): 5000 nM
CCCSc1ccccc1OC(=O)NC [6a, 2-(propylthio)phenyl methylcarbamate]	2300	
